Source: patent US20180153995A1, “USE OF ANTIMICROBIAL POLYMERS FOR RE-SENSITIZATION OF MICROORGANISMS UPON EMERGENCE OF RESISTANCE TO ANTI-MICROBIAL AGENTS” (Technion Research & Development Foundation Limited, priority 2008, published 2018)
Like-named read-outs stand apart in the source and are kept apart here.

What was measured:
S. aureus 15877 = test: Antibiotic MIC by microdilution with or without sub-MIC polymer; format: cell-based, Staphylococcus aureus
E. coli 14384 = test: as above; format: cell-based, Escherichia coli; details: E. coli 14384; for Antibiotic MIC in presence of C12K(NC8K)7NH2 (SEQ ID NO: 4), +½ MIC: polymer at ½ of its MIC; for Antibiotic MIC, None: antibiotic alone (Table 15); for Antibiotic MIC in presence of C12K(NC8K)7NH2 (SEQ ID NO: 4), +⅓ MIC: polymer at ⅓ of its MIC
Experimental: (§1) MICs were determined by microdilution susceptibility testing in 96-well plates (by Nunc) using inocula of 10^5 bacteria per ml. Cell populations were evaluated by optical density measurements at 620 nm and were calibrated against a set of standards. Hundred (100) μl of a bacterial suspension were added to 100 μl of culture medium (control) or to 100 μl of culture medium containing various polymer concentrations in 2-fold serial dilutions. Inhibition of proliferation was determined by optical density measurements at 620 nm after an incubation period of 24 hours at 37° C.
(§2) 100 μl of a bacterial suspension were added to 100 μl of culture medium (control) or to 100 μl of culture medium containing various antibiotic and C14(9-ene)KKNC12KNH2 (SEQ ID NO: 5) concentrations in 2-fold serial dilutions. Inhibition of proliferation was determined by optical density measurements at 620 nm after an incubation period of 24 hours at 37° C.

E. coli 16329 = format: cell-based, Escherichia coli; details: for Antibiotic MIC in presence of C12K(NC8K)7NH2 (SEQ ID NO: 4), +½ MIC: polymer at ½ of its MIC
Experimental: as §1, §2

[1] = tested on: E. coli K-12 resistant wild type; format: cell-based, Escherichia coli; details: E. coli AG100 (w.t.); for Antibiotic MIC in presence of C12K(NC8K)7NH2 (SEQ ID NO: 4), +¼ MIC: polymer at ¼ of its MIC (Table 16); for Antibiotic MIC in presence of C12K(NC8K)7NH2 (SEQ ID NO: 4), +½ MIC: polymer at ½ of its MIC (Table 16); for Antibiotic MIC in presence of C12K(NC8K)7NH2 (SEQ ID NO: 4), +⅓ MIC: polymer at ⅓ of its MIC (Table 16); for Antibiotic MIC in presence of the OAK, +½ MIC: the OAK at ½ of its MIC (Table 17)
P. aeruginosa 8732 = test: Antibiotic MIC by microdilution with or without sub-MIC polymer; format: cell-based, Pseudomonas aeruginosa; details: P. aeruginosa 8732
Experimental: as §1
Inhibition of proliferation was determined by optical density measurements at 620 nm after an incubation period of 24 hours at 37° C.

P. mirabilis 1285 [2] = format: cell-based, Proteus mirabilis; details: no polymer (None), Table 12
Experimental: as §1, §2

P. mirabilis 1285 [3] = format: cell-based, Proteus mirabilis
MRSA 15852 = format: cell-based, Staphylococcus aureus; details: S. aureus 15852
Experimental: The fractionary inhibitory (FIC) concentration index for combinations of two antimicrobial agents was calculated as follows: FIC index=FICA+FICB=A/MICA+B/MICB where A and B are the MIC values of agent A and agent B in the combination, MICA and MICB are the MICs of agent A and agent B alone, and FICA and FICB are the FICs of agent A and agent B.
The FIC indexes were interpreted as follows: less than 0.5 indicates a clear re-sensitizing effect; from 0.5 to 4 indicates a marginal or null re-sensitizing effect; and over 4 indicates antagonism.

[4] = tested on: E. coli AB301 (wild type); test: Erythromycin MIC with or without sub-MIC polymer; format: cell-based, Escherichia coli
[5] = +¼ MIC (1.6 μM) C12(5-ene)KKNC12KNH2
[6] = +½ MIC (3.12 μM) C12(5-ene)KKNC12KNH2
[7] = +⅓ MIC (2.1 μM) C12(5-ene)KKNC12KNH2
[8] = +½ MIC (3.12 μM) C14(9-ene)KKNC12KNH2
[9] = E. coli U-16329, +½ MIC C12K(NC8K)5NH2
[10] = +¼ MIC (1.6 μM) C12K(KNC12K)2NH2
[11] = +½ MIC (3.12 μM) C12K(KNC12K)2NH2
[12] = +⅓ MIC (2.1 μM) C12K(KNC12K)2NH2

| Compound | Antibiotic MIC (S. aureus 15877; [5]) [µg/mL] | Antibiotic MIC (S. aureus 15877; [6]) [µg/mL] | Antibiotic MIC (S. aureus 15877; [7]) [µg/mL] | Antibiotic MIC (S. aureus 15877; no polymer (None), Table 8) [µg/mL] | Antibiotic MIC (E. coli 14384; [8]) [µg/mL] | Antibiotic MIC (E. coli 14384; +½ MIC C12K(NC8K)5NH2) [µg/mL] | Antibiotic MIC in presence of C12K(NC8K)7NH2 (SEQ ID NO: 4), +½ MIC (E. coli 14384) [µg/mL] | Antibiotic MIC (E. coli 16329; [9]) [µg/mL] | Antibiotic MIC in presence of C12K(NC8K)7NH2 (SEQ ID NO: 4), +½ MIC (E. coli 16329; E. coli U-16329) [µg/mL] | Antibiotic MIC in presence of C12K(NC8K)7NH2 (SEQ ID NO: 4), +¼ MIC [1] [µg/mL] | Antibiotic MIC in presence of C12K(NC8K)7NH2 (SEQ ID NO: 4), +½ MIC [1] [µg/mL] | Antibiotic MIC in presence of C12K(NC8K)7NH2 (SEQ ID NO: 4), +⅓ MIC [1] [µg/mL] | Antibiotic MIC, None (E. coli 14384) [µg/mL] | Antibiotic MIC (E. coli 14384; no polymer (None), Table 9) [µg/mL] | Antibiotic MIC (E. coli 14384; no polymer (None), Table 14) [µg/mL] | Antibiotic MIC in presence of C12K(NC8K)7NH2 (SEQ ID NO: 4), +⅓ MIC (E. coli 14384) [µg/mL] | Antibiotic MIC (P. aeruginosa 8732; no polymer (None), Table 10) [µg/mL] | Antibiotic MIC (P. mirabilis 1285 [2]) [µg/mL] | Antibiotic MIC in presence of the OAK, +½ MIC [1] [µg/mL] | Antibiotic MIC (P. mirabilis 1285 [3]; [10]) [µg/mL] | also measured |
| --- | --- | --- | --- | --- | --- | --- | --- | --- | --- | --- | --- | --- | --- | --- | --- | --- | --- | --- | --- | --- | --- |
| CN(C)[C@@H]1C(O)=C(C(N)=O)C(=O)[C@@]2(O)C(O)=C3C(=O)c4c(O)cccc4[C@@](C)(O)[C@H]3C[C@@H]12 [Tetracycline, tetracycline] | 1 | 0.5 to 1 | 1 | 1 | 32 | 32 to 64 | 64 | 64 | 32 to 64 | 1 to 2 | 0.25 to 0.5 | 0.5 |  |  |  |  |  |  |  |  |  |
| gentamicin |  |  |  |  | 2 | 1 to 2 | 2 |  |  | 4 | 2 | 4 | 4 | 4 | 4 | 2 to 4 | 4 | 32 | 4 | 32 | Antibiotic MIC (E. coli 14384; +¼ MIC (1.6 μM) C14(9-ene)KKNC12KNH2): 4 µg/mL; Antibiotic MIC (E. coli 14384; +⅓ MIC (2.1 μM) C14(9-ene)KKNC12KNH2): 4 µg/mL; Antibiotic MIC in presence of C12K(NC8K)7NH2 (SEQ ID NO: 4), +¼ MIC (E. coli 14384; polymer at ¼ of its MIC): 4 µg/mL; Antibiotic MIC (P. aeruginosa 8732; +¼ MIC (1.6 μM) C16(9-ene)KKNC12KNH2): 4 µg/mL; Antibiotic MIC (P. aeruginosa 8732; +½ MIC (3.12 μM) C16(9-ene)KKNC12KNH2): 4 µg/mL; Antibiotic MIC (P. aeruginosa 8732; +⅓ MIC (2.1 μM) C16(9-ene)KKNC12KNH2): 4 µg/mL; Antibiotic MIC, None ([1]; antibiotic alone (Table 16)): 4 to 8 µg/mL; Antibiotic MIC, None ([1]; antibiotic alone (Table 17)): 4 to 8 µg/mL; Antibiotic MIC in presence of the OAK, +¼ MIC ([1]; the OAK at ¼ of its MIC (Table 17)): 4 µg/mL; Antibiotic MIC in presence of the OAK, +⅓ MIC ([1]; the OAK at ⅓ of its MIC (Table 17)): 4 µg/mL; Antibiotic MIC (P. mirabilis 1285 [3]; [11]): 32 µg/mL; Antibiotic MIC (P. mirabilis 1285 [3]; [12]): 32 µg/mL |
| CC[C@H]1OC(=O)[C@H](C)[C@@H](O[C@H]2C[C@@](C)(OC)[C@@H](O)[C@H](C)O2)[C@H](C)[C@@H](O[C@@H]2O[C@H](C)C[C@H](N(C)C)[C@H]2O)[C@](C)(O)C[C@@H](C)C(=O)[C@H](C)[C@@H](O)[C@]1(C)O [Erythromycin, erythromycin] | >512 | >512 | >512 | >512 | 32 | 4 to 8 | 8 to 16 | 32 | 16 |  | 8 to 16 |  |  |  |  | 16 to 32 |  |  | 16 |  | Antibiotic MIC (MRSA 15852; [5]): >512 µg/mL; Antibiotic MIC (MRSA 15852; +¼ MIC (1.6 μM) C12KKNC12KNH2): >512 µg/mL; Antibiotic MIC (MRSA 15852; [6]): >512 µg/mL; Antibiotic MIC (MRSA 15852; +½ MIC (3.12 μM) C12KKNC12KNH2): >512 µg/mL; Antibiotic MIC (MRSA 15852; [7]): >512 µg/mL; Antibiotic MIC (MRSA 15852; +⅓ MIC (2.1 μM) C12KKNC12KNH2): >512 µg/mL; Antibiotic MIC (MRSA 15852; no polymer (None), Table 8): >512 µg/mL; Antibiotic MIC (MRSA 15852; no polymer (None), Table 11): >512 µg/mL; Antibiotic MIC (E. coli 14384; +¼ MIC C12K(NC8K)5NH2): 32 to 64 µg/mL; Antibiotic MIC (E. coli 14384; +⅓ MIC C12K(NC8K)5NH2): 32 µg/mL; Antibiotic MIC ([4]; +¼ MIC C12K(NC8K)5NH2): 32 µg/mL; Antibiotic MIC ([4]; +¼ MIC C12K(NC8K)7NH2): 32 µg/mL; Antibiotic MIC ([4]; +½ MIC C12K(NC8K)5NH2): 8 µg/mL; Antibiotic MIC ([4]; +½ MIC C12K(NC8K)7NH2): 4 to 8 µg/mL; Antibiotic MIC ([4]; +⅓ MIC C12K(NC8K)5NH2): 16 to 32 µg/mL; Antibiotic MIC ([4]; +⅓ MIC C12K(NC8K)7NH2): 16 to 32 µg/mL |
| O=C(O)c1cn(C2CC2)c2cc(N3CCNCC3)c(F)cc2c1=O [Ciprofloxacin, ciprofloxacin] | 4 | 4 | 4 | 4 |  |  |  | 32 | 64 |  |  |  | <0.03 | <0.03 | <0.03 |  | <0.03 | 32 |  | 32 | Antibiotic MIC (MRSA 15852; [5]): 16 µg/mL; Antibiotic MIC (MRSA 15852; +¼ MIC (1.6 μM) C12KKNC12KNH2): 32 µg/mL; Antibiotic MIC (MRSA 15852; [6]): 16 µg/mL; Antibiotic MIC (MRSA 15852; +½ MIC (3.12 μM) C12KKNC12KNH2): 32 µg/mL; Antibiotic MIC (MRSA 15852; [7]): 16 µg/mL; Antibiotic MIC (MRSA 15852; +⅓ MIC (2.1 μM) C12KKNC12KNH2): 32 µg/mL; Antibiotic MIC (MRSA 15852; no polymer (None), Table 8): 16 µg/mL; Antibiotic MIC (MRSA 15852; no polymer (None), Table 11): 32 µg/mL; Antibiotic MIC (E. coli 16329; E. coli 16329, +¼ MIC (1.6 μM) C16(9-ene)KKNC12KNH2): 64 µg/mL; Antibiotic MIC (E. coli 16329; E. coli 16329, +½ MIC (3.12 μM) C16(9-ene)KKNC12KNH2): 64 µg/mL; Antibiotic MIC (E. coli 16329; E. coli 16329, +⅓ MIC (2.1 μM) C16(9-ene)KKNC12KNH2): 64 µg/mL; Antibiotic MIC (E. coli 16329; E. coli 16329, no polymer (None), Table 10): 64 µg/mL; Antibiotic MIC (E. coli 16329; E. coli U-16329, +¼ MIC C12K(NC8K)5NH2): 64 µg/mL; Antibiotic MIC (E. coli 16329; E. coli U-16329, +⅓ MIC C12K(NC8K)5NH2): 64 µg/mL; Antibiotic MIC, None (E. coli 16329; E. coli U-16329, antibiotic alone (Table 15)): 64 µg/mL; Antibiotic MIC (E. coli 16329; E. coli U-16329, no polymer (None), Table 14): 64 µg/mL; Antibiotic MIC in presence of C12K(NC8K)7NH2 (SEQ ID NO: 4), +¼ MIC (E. coli 16329; E. coli U-16329, polymer at ¼ of its MIC): 64 to 128 µg/mL; Antibiotic MIC in presence of C12K(NC8K)7NH2 (SEQ ID NO: 4), +⅓ MIC (E. coli 16329; E. coli U-16329, polymer at ⅓ of its MIC): 64 µg/mL; Antibiotic MIC (P. mirabilis 1285 [3]; [11]): 8 µg/mL; Antibiotic MIC (P. mirabilis 1285 [3]; [12]): 16 µg/mL |
